Holding throughout (assay): DTP human tumour cell line panel, 48 h
In test [1] the test system is HT29 colon.
For test [2], the system named is UO-31 renal.
The subject of test [3] is U251 CNS.
For test [4], the system named is LXFL 529 NSCLC.
Test [5] relates to M14 melanoma.
The test system of test [6] is RPMI-8226 leukemia.
The subject of test [7] is KM20L2 colon.
For test [8], the system named is DMS 114 small cell lung.
For test [9], the system named is BT-549 breast.
Test [10] has as its system HS 578T breast.

Where “and” joins values, the source holds several entries; their conditions need not be identical. Equal values may be shown once.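 Protocol summary: plate cells (96-well), add compound at 5 concentrations, incubate 48 h, interpolate endpoints linearly. GI50 marks 50% less growth. The concentration for full growth arrest is given as TGI.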 Bounds are passed on as bounds.

TGI and GI50 data for twelve compounds are collected here from PubChem BioAssay (NCI).

One may read the TGI as the concentration giving total growth inhibition. High values mean lower sensitivity of the cells, low ones greater sensitivity of the cells. With `COc1cc2ccnc3c2c(c1OC)-c1coc(SC)c1-3`, the TGI in test [1], in test [2], in [3], in [4], in test [5] and in [6] was greater than 100 µM throughout. The compound further displayed a TGI in test [7] greater than 100 µM.
In the case of `CC(CN(C)C)/C(=N\Nc1ccccc1)c1ccccc1` (stereo unspecified), the TGI in [1] was 17.9 µM; in [2], 3.28 µM; in test [8], 20.5 µM; in test [3] it was 5.88 µM; in test [5] it was 16.8 µM; in test [6], 67.6 µM. Further, the TGI in test [7] amounted to 0.333 µM.
For the compound `COc1c(O)c2c3c(cc(C)cc3c1C(C)C)OC2`, the TGI in test [1], in test [2], in [3], in test [4], in test [5] and in [6] was greater than 100 µM throughout. The same compound came in with a TGI in [7] greater than 100 µM.
As a reminder, the GI50 is the concentration at which growth is held to half of that of the control. Turning to `C=C1C(O)C2C(=C(CC)C13CC3)C(=O)C(C)(C)C2OC` (stereo unspecified), the GI50 is greater than 100 µM in test [1]; greater than 100 µM in test [9]; 81.5 µM in test [2]; 48.4 µM in test [3]; 59.4 µM in test [5]; 20.6 µM in test [6]. For the same compound, the GI50 in test [10] is greater than 100 µM. Also, the TGI is greater than 100 µM in test [1]; greater than 100 µM in [9]; greater than 100 µM in test [2]; greater than 100 µM in [3]; greater than 100 µM in test [5]; 68 µM in test [6]. This compound also had a TGI in [10] greater than 100 µM.
For the compound `N#C/C(=C\c1ccsc1)c1nc2ccccc2o1`, the GI50 in [1] is greater than 100 µM; in [9], 48.4 µM; in test [2], 46.4 µM; in test [3] it was 37.2 µM; in [5], greater than 100 µM; in test [6], 61.7 µM. Besides, the GI50 in test [10] was 26 µM. For the same compound, the TGI in test [1], in test [9], in test [2], in test [3], in [5] and in test [6] was greater than 100 µM throughout. Besides, the TGI in test [10] is 92.9 µM.
Consider `COC(=O)C1(Cc2ccc3c(c2)CCC3)Cc2ccccc2C1O` (stereo unspecified), for which the TGI in [1] was 31.6 µM; in [9], 35.1 µM; in test [2], 29.2 µM; in test [3], 31.1 µM; in test [5] it was 34.9 µM; in [6], 80.4 µM. The compound further gave a TGI in [10] of 48.1 µM.
Consider `CSC1=C(N)C(=O)c2[nH]cc(CO)c2C1=N`, for which the GI50 was 0.161 µM in test [1]; 0.171 µM in test [9]; 0.154 µM in [2]; 0.181 µM in [3]; 0.139 µM in test [5]; 0.293 µM in [6]. For the same compound, the GI50 in test [10] is 0.282 µM. Besides, the TGI was determined as 0.498 µM in test [1]; 0.313 µM in [9]; 0.295 µM in test [2]; 0.347 µM in [3]; 0.285 µM in test [5]; 1.2 µM in test [6]. Besides, the TGI in test [10] is 0.796 µM.
Consider `COc1cccc(-c2c[nH]c3c(N/N=C/c4ccncc4)ncnc23)c1`, for which the GI50 in test [1] was 1.58 µM; in test [9] it was 4.89 µM; in test [2] it was 1.75 µM; in test [3], 2.13 µM; in test [5], 3.19 µM; in test [6] it was 5.62 µM. Further, the GI50 in test [10] was 0.816 µM. The TGI in test [1] is 8.9 µM; in test [9], 18.5 µM; in test [2], greater than 23.7 µM; in [3] it was 7.94 µM; in test [5], 9.54 µM; in test [6], 14.4 µM. For the same compound, in test [10], the TGI stood at 9.97 µM.
With `COc1ccc2c(c1)NC1=C(C(=O)OC1)C2c1cc(OC)c2c(c1)OCO2` (stereo unspecified), the GI50 was 0.0314 µM in test [1]; 0.046 µM in [9]; 0.0236 µM in test [3]; 0.0132 µM in test [5]; less than 0.0198 µM in [6]; less than 0.0189 µM in test [10]. In addition, the total growth inhibition concentration (TGI) in test [1] was greater than 100 µM; in [9], greater than 100 µM; in [2], greater than 100 µM; in test [3] it was greater than 100 µM; in test [5] it was 0.0585 µM; in [6], greater than 100 µM. This compound yielded a total growth inhibition concentration (TGI) in test [10] greater than 100 µM.
For `CCOC(=O)/C(C1=NCCN1)=C(\O)c1ccccc1`, the TGI in [1], in [2], in [3], in test [4], in test [5] and in [6] was greater than 100 µM throughout. Moreover, in test [7], the TGI is greater than 100 µM.
Take `Cc1cc2c(cc1Cl)SC1=NN(C)C(C)N1S2(=O)=O` (stereo unspecified): the GI50 in [1] was greater than 100 µM; in test [9] it was 96.5 µM; in test [2], greater than 100 µM; in test [3], greater than 100 µM; in test [5], greater than 100 µM; in test [6], greater than 100 µM. Further, the GI50 in [10] was greater than 100 µM. Besides, the TGI in [1], in test [9], in [2], in [3], in [5] and in [6] was greater than 100 µM throughout. The compound also registered a TGI in test [10] greater than 100 µM.
For `Cc1cccc(/C=N/NC(=S)N2CCCC2)n1`, the GI50 in [1] is 4.49 µM; in test [9], 3.02 µM; in [2], 0.748 µM; in test [3], 0.821 µM; in test [5], 0.392 µM; in test [6], 0.426 µM and 0.322 µM. Also, the TGI in test [1] is greater than 100 µM; in [9], greater than 100 µM; in test [2], 4.19 µM; in test [3] it was greater than 100 µM; in test [5], 2.64 µM and 0.485 µM; in test [6], greater than 100 µM. Besides, in test [10], the TGI is greater than 100 µM.
